Experimental findings from patent US8877815B2, “Substituted carbamoylcycloalkyl acetic acid derivatives as NEP” (Novartis AG, priority 2010, dated 2014) are described below.

The target in the assay is T1, recombinant human neutral endopeptidase (NEP, EC 3.4.24.11) (Homo sapiens, UniProt P08473).
T1 construct: made in house; host or cells: insect cells
Kind of assay: in vitro inhibition of recombinant human neutral endopeptidase (fluorescence lifetime assay). Format: biochemical. Conditions: 1 hour pre-incubation, read after 1 hour at room temperature, pH 7.4, substrate Cys(PT14)-Arg-Arg-Leu-Trp-OH 0.7 μM. From the text: The activity of a compound according to the present invention can be assessed by the following in vitro & in vivo methods and/or by the following in vitro & in vivo methods well-described in the art. See A fluorescence lifetime-based assay for protease inhibitor profiling on human kallikrein 7 Doering K, Meder G, Hinnenberger M, Woelcke J, Mayr L M, Hassiepen U Biomol Screen. 2009 January; 14(1):1-9.
In particular, the in vitro inhibition of recombinant human neutral endopeptidase (NEP, EC 3.4.24.11) can be determined as follows:
Recombinant human neutral endopeptidase (expressed in insect cells and purified using standard methods, final concentration 7 pM) is pre-incubated with test compounds at various concentrations for 1 hour at room temperature in 10 mM sodium phosphate buffer at pH 7.4, containing 150 mM NaCl and 0.05% (w/v) CHAPS. The enzymatic reaction is started by the addition of a synthetic peptide substrate Cys(PT14)-Arg-Arg-Leu-Trp-OH to a final concentration of 0.7 μM. Substrate hydrolysis leads to an increase fluorescence lifetime (FLT) of PT14 measured by the means of a FLT reader as described by Doering et al. (2009). The effect of the compound on the enzymatic activity was determined after 1 hour (t=60 min) incubation at room temperature. The IC50 values, corresponding to the inhibitor concentration showing 50% reduction of the FLT values measured in absence of inhibitor, are calculated from the plot of percentage of inhibition vs. inhibitor concentration using non-linear regression analysis software.

For orientation: IC50 means the concentration that gives 50% inhibition.

T1 sequence (P08473 whole entry): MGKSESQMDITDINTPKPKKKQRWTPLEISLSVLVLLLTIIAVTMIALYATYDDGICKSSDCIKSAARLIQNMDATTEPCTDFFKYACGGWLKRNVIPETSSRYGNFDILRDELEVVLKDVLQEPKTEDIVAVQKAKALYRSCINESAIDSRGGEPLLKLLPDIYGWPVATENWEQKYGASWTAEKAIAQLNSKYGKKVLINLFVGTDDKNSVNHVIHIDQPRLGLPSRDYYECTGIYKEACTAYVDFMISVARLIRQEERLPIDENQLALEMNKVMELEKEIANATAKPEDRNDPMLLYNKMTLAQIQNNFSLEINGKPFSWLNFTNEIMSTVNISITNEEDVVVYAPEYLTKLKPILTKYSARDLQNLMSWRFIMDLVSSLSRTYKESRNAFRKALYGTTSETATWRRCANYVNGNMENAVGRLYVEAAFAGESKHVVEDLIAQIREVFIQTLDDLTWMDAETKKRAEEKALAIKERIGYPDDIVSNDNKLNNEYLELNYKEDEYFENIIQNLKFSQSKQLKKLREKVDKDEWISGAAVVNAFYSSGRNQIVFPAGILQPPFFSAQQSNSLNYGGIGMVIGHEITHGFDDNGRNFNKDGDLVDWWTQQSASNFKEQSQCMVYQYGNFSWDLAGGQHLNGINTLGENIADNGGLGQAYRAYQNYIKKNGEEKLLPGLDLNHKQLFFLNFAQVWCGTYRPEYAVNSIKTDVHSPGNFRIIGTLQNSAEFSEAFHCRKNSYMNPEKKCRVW

In the case of `O=C(O)CC1(C(=O)N[C@@H](Cc2ccc(-c3ccccc3)cc2)C(=O)O)CCCC1` [Example 1-7], the IC50 turned out to be 15 nM.

On to `Cc1cccc(-c2ccc(C[C@H](NC(=O)C3(CC(=O)O)CCCC3)c3nnn[nH]3)cc2)c1` [Example 9-1, (S)-2-(1-(2-(3′-methylbiphenyl-4-yl)-1-(1H-tetrazol-5-yl)ethylcarbamoyl)cyclopentyl)acetic acid], for which the IC50 stood at 40 nM.

As to `O=C(O)CC1(C(=O)N[C@@H](Cc2ccc(-c3ccccc3Cl)cc2)c2nnn[nH]2)CCCC1` [Example 8-1], the half-inhibitory concentration (IC50) is 6 nM.

With `O=C(O)CC1(C(=O)N[C@@H](Cc2ccc(-c3ccccc3)cc2)C(=O)N2CCC[C@H]2C(=O)O)CCCC1` [Example 1-1, (S)-1-((S)-3-(biphenyl-4-yl)-2-(1-(carboxymethyl)cyclopentanecarboxamido)propanoyl)pyrrolidine-2-carboxylicacid], the IC50 was determined as 12 nM.

Turning to `COc1cccc(-c2ccc(C[C@H](NC(=O)C3(CC(=O)O)CCCC3)c3nnn[nH]3)cc2)c1` [Example 9-2], the concentration for half-maximal inhibition (IC50) is 11 nM.

For the compound `O=C(O)CC1(C(=O)N[C@@H](Cc2ccc(-c3ccccc3)cc2)c2nnn[nH]2)CCCC1` [Example 31-2, {1-[(S)-2-Biphenyl-4-yl-1-(1H-tetrazol-5-yl)-ethylcarbamoyl]-cyclopentyl}-acetic acid], the IC50 turned out to be 10 nM.
